From PubChem BioAssay AID372 (MTDP, 2006)
Calls of active or inactive are those of the source. Cut-off read from the data, not from the text of the source: active = inhibition above about 50%; inactive = the rest.

Molecular target: Gag-Pol polyprotein (Human immunodeficiency virus type 1 group M subtype B (isolate HXB2)) (UniProt P04585)
Experiment: RNase H inhibition, HIV 1 Gag Pol polyprotein, FRET biochemical assay, screening (AID 372)
Conditions: HIV-1 RT RNase H, FRET RNA/DNA substrate fluorescence

Structure (SMILES) | IC50
Cc1ccc(S(=O)(=O)N=C2C=CC(=O)C=C2)c(C)c1 | 1.9 µM
O=C1Nc2ccc(I)cc2C1(O)N1CCOCC1 (stereo unspecified) | 6.3 µM
NC(=O)c1c(N)sc2c1CCCCC2 | 2 µM
N#C/C(=C\Nc1ccc(S(=O)(=O)Nc2nccs2)cc1)c1nc(-c2ccc(Cl)cc2)cs1 | 4.1 µM
COc1ccc2c(c1)N(C(=O)CN1C(=O)c3ccccc3C1=O)C(C)(C)c1ssc(=S)c1-2 | 3 µM
COc1ccc(N2C(=O)/C(=C/c3ccc(I)o3)C(=O)NC2=S)cc1 | 3.7 µM
Cc1ccc(C)n1-c1ccc(SCC(=O)O)cc1 | 8 µM
Cc1sc(NC(=O)c2ccc(Br)o2)c(C(N)=O)c1C | 5.5 µM
Cc1cc(I)c2c(c1)C1C=CCC1C(C(=O)O)N2 (stereo unspecified) | 100 µM
Cc1cc(-c2ccc(C=C3C(=O)NC(=S)NC3=O)o2)c([N+](=O)[O-])cc1C | 3 µM
Cc1ccc(C(=O)NC(=S)Nc2ccc(-c3nc4ccccc4s3)cc2)cc1[N+](=O)[O-] | 20 µM
COc1ccccc1NC(=O)c1c(NC(=O)Cc2ccccc2)sc2c1CCCCC2 | inactive
COc1ccc(N2C(=O)/C(=C\c3cn(CC(=O)Nc4ccccc4)c4ccccc34)C(=O)NC2=S)cc1 | 5 µM
O=c1[nH]c(=S)n(-c2ccccc2F)c(O)c1C=C1C=CC=N1 | 2.3 µM
Cc1cc(-c2ccco2)c(C#N)c(SCC(=O)c2ccc(O)c(O)c2)n1 | 1.4 µM
NC(=O)c1c(NC(=O)COc2ccccc2)sc2c1CCCCC2 | inactive
Cc1ccc(C)n1-c1ccc(O)c(C(=O)O)c1 | 9 µM
O=c1oc2ccccc2c(O)c1/C=C1\C=Nc2ccccc21 | 3.2 µM
Cc1ccc(C=C2C(=O)NC(=S)N(c3ccccc3Cl)C2=O)o1 | 8 µM
O=C1NC(=S)N(c2ccccc2F)C(=O)C1=Cc1ccco1 | 2.2 µM
Cc1nn(CC(=O)Nc2sc(C)c(C)c2C(N)=O)c(C)c1[N+](=O)[O-] | 4.3 µM
Cc1cc(C)c2c(=O)[nH]c(SCC(=O)c3ccc(O)c(O)c3)nc2n1 | 3.4 µM
C=CCn1c(N)c(-c2nc3ccccc3[nH]2)sc1=S | 2.8 µM

Structure (SMILES) | IC50
Cc1sc(NC(=O)c2cccc([N+](=O)[O-])c2)c(C(N)=O)c1C | inactive
Cc1ccc(C)n1-c1ccc(Br)cc1C(=O)O | 32 µM
COc1ccc(-c2c(C#N)c(N)nc(SCC(=O)c3ccc(O)c(O)c3)c2C#N)cc1 | 1.8 µM
O=C(N/N=C/c1ccccc1Cl)c1cc(O)c(O)c(O)c1 | 0.6 µM
COc1ccc(-c2nc3sc(-c4ccc(OC)cc4)nc3s2)cc1 | 1.9 µM
Cc1ccc(N2C(=O)/C(=C/c3ccc(O)c(O)c3)SC2=S)cc1C | 12 µM
O=C1/C(=C/c2ccc(O)c(O)c2)SC(=S)N1C1CCCCC1 | 5.7 µM
NC(=O)c1c(NC(=O)CCc2ccccc2)sc2c1CCCCCC2 | 1.5 µM
O=C1C(Cl)=CC(=NS(=O)(=O)c2ccccc2)C=C1Cl | 3.1 µM
Nc1ccc(S(=O)(=O)O)c2cccc(O)c12 | 10 µM
COc1ccc(/C=C\C(=O)c2c(-c3ccccc3)c3cc(C)ccc3[nH]c2=O)c(OC)c1 | 22 µM
Cc1sc2nc(-c3ccc([N+](=O)[O-])cc3)[nH]c(=O)c2c1C | 0.55 µM
Cc1sc(NC(=O)C2CC3CCC2C3)c(C(N)=O)c1C (stereo unspecified) | 13 µM
O=C(N/N=C/c1ccc(/C=N/NC(=O)c2ccc(O)c(O)c2)cc1)c1ccc(O)c(O)c1 | 2.1 µM
O=C(O)C1Nc2c(Cl)cc(Cl)cc2C2C=CCC12 (stereo unspecified) | 72 µM
Cc1cccc(NCC(=O)N/N=C\c2c(Br)cc(Br)c(O)c2Br)c1 | 62 µM
O=C1C=CC(=NS(=O)(=O)c2ccc(Cl)c([N+](=O)[O-])c2)C=C1 | 1.5 µM
COc1cc(C=O)ccc1OCCCOc1cccc(Oc2ccccc2)c1 | 100 µM
O=C1NC(=O)/C(=C/c2ccc(-c3ccc(O)c(C(=O)O)c3)o2)S1 | 4.2 µM
O=C(Nc1sc2c(c1C(=O)Nc1cccc3ccccc13)CCCCC2)c1ccccc1F | inactive
CCOc1ccc(NC(=O)c2c(NC(=O)c3ccco3)sc3c2CCCCC3)cc1 | 10 µM
O=S(=O)(Nc1cccc(C(F)(F)F)c1)c1ccc2ccccc2c1 | 25 µM
Cc1ccc(S(=O)(=O)/N=C2\C=CC(=O)C=C2Cl)cc1 | 1.5 µM

Structure (SMILES) | IC50
O=C1NC(=S)N(c2cccc(Cl)c2)C(=O)/C1=C\C=C\c1ccco1 | 7.7 µM
COC(=O)c1c(N)sc(C(=O)Nc2ccc(OC)cc2)c1C | 6.6 µM
Cc1sc(NC(=O)c2ccc3c(c2)OCO3)c(C(N)=O)c1C | inactive
COc1ccccc1N=C(NOCc1ccc(Cl)cc1Cl)c1nonc1N | 1.7 µM
O=C1NC(=S)N(c2ccc(Cl)cc2)C(=O)/C1=C/c1ccco1 | 8.9 µM
C=CCN1C(=O)/C(=C\c2ccc([N+](=O)[O-])o2)C(=O)NC1=S | 75 µM
Cc1ccc(-c2cc(C(=O)Nc3sc(C(=O)OC(C)C)c(C)c3C(N)=O)c3ccccc3n2)s1 | inactive
O=C(Cc1ccccc1Cl)c1ccc(O)c(O)c1O | 2 µM
Cc1c(Cl)ccc2c1NC(C(=O)O)C1CC=CC21 (stereo unspecified) | 22 µM
CC1=NN(c2ccc(S(N)(=O)=O)cc2)C(=O)/C1=C/c1ccc(-c2ccc(Cl)cc2Cl)o1 | 3.8 µM
CC(C)OC(=O)c1cc(O)c(O)c(O)c1 | 1.3 µM
Cc1cc(C(=O)O)ccc1-n1c(C)ccc1C | 100 µM
O=C1/C(=C/c2ccc(O)c(O)c2)SC(=S)N1c1ccc(O)cc1 | 3.5 µM
O=C1C(Cl)=C/C(=N\S(=O)(=O)c2ccc(Cl)cc2)C(Cl)=C1Cl | 4 µM
COc1ccc2oc(=O)c(-c3csc(Nc4ccc(Br)cc4)n3)cc2c1 | 10.1 µM
N#Cc1c(N)nc(SCC(=O)c2ccc(O)c(O)c2)c(C#N)c1-c1ccc(O)cc1 | 0.9 µM
O=C1NC(=S)N(c2ccc(Cl)cc2)C(=O)/C1=C/c1ccc(Br)o1 | 1.7 µM
Cc1sc(NC(=O)C2CCCO2)c(C(N)=O)c1C (stereo unspecified) | 3 µM
O=C1C=CC(=O)C(c2cccc(Cl)c2)=C1 | 2.3 µM
O=C1C(Cl)=C(NC(=O)c2ccccc2)C(=O)C(Cl)=C1NC(=O)c1ccccc1 | 4 µM
Cc1cc(Br)ccc1N1C(=O)/C(=C/c2ccco2)C(=O)NC1=S | 7 µM
Cc1ccc(S(=O)(=O)/N=C2\C=C(Sc3ncn[nH]3)C(=O)c3ccccc32)cc1 | 1.3 µM
Cc1ccc(-c2c(C#N)c(SCC(=O)c3ccc(O)c(O)c3)nc3c2CCCC3)o1 | 6.5 µM

Structure (SMILES) | IC50
Cc1cc(Cl)ccc1OCC(=O)Nc1sc(C)c(C)c1C(N)=O | 10.7 µM
Cc1ccc(NC(=O)c2c(NC(=O)C(F)(F)F)sc(-c3ccccc3)c2C)c(C)c1 | 2.8 µM
CC1=C(C)CC(C(=O)Nc2ccc(N3C(=O)c4ccccc4C3=O)cc2)C(C(=O)O)C1 (stereo unspecified) | 100 µM
Cc1ccccc1-n1c(O)c(C=C2C=CC=N2)c(=O)[nH]c1=S | 10.2 µM
O=C(O)c1cc(-c2ccc(/C=C3/Sc4ccccc4C3=O)o2)ccc1O | 3.3 µM
CCOc1ccc(C(=O)Nc2ccc3c(c2)C(=O)c2ccccc2C3=O)cc1 | 8 µM
COc1ccc(NC(=O)c2c(N)sc(-c3ccccc3)c2C)cc1 | 7 µM
O=C1NC(=S)N(c2ccccc2F)C(=O)/C1=C/c1ccc(OCc2cccc(C(=O)O)c2)cc1 | 9 µM
Cc1ccc(NC(=O)c2c(NC(=O)c3ccccc3F)sc3c2CCCCC3)cc1 | inactive
Cc1onc(-c2ccccc2)c1C(=O)Nc1sc(C)c(C)c1C(N)=O | inactive
O=C1NN(c2ccc(I)cc2)C(=O)/C1=C\c1ccc(O)c(O)c1 | 10.8 µM
Cc1ccc(C(=O)Nc2sc(C)c(C)c2C(N)=O)cc1 | 0.6 µM
O=C1/C(=C/c2ccco2)C(=O)N(c2ccc(Br)cc2)C(=S)N1c1ccccc1 | 10.2 µM
CCOc1ccc(N2C(=O)/C(=C/c3ccc(Br)o3)C(=O)NC2=S)cc1 | 2.1 µM
CCOc1cccc(N2C(=O)/C(=C/c3cn(CC(=O)OC)c4ccccc34)C(=O)NC2=S)c1 | 5.5 µM
COc1cccc2cc(C(N)=O)c(=O)oc12 | 4 µM
COc1cc(/C=N\c2sc3c(c2C(=O)NCc2ccccc2)CCCC3)cc(Cl)c1O | 2.1 µM
CCOc1ccc(NC(=O)c2c(NC(=O)c3ccccc3)sc3c2CCCCC3)cc1 | inactive
O=C(Nc1ccc(N2CCN(C(=O)c3ccccc3)CC2)cc1)c1ccc(-c2ccccc2)cc1 | 4.2 µM
O=C1NC(=S)N(c2ccc(Cl)cc2)C(=O)/C1=C\C=C\c1ccccc1[N+](=O)[O-] | 3.3 µM
Cc1cccc(NC(=O)c2c(NC(=O)c3ccc([N+](=O)[O-])cc3)sc3c2CCCC3)c1 | 1.5 µM
O=C1C=C/C(=N\S(=O)(=O)c2cc(Cl)ccc2Cl)C=C1Cl | 2 µM
O=C(Oc1ccccc1)Oc1c(Cl)cc2oc(=O)sc2c1Cl | 19 µM

Structure (SMILES) | IC50
COc1ccc(C(=O)NC(=S)Nc2ccc3nn(-c4ccc(C)c(Cl)c4)nc3c2)cc1[N+](=O)[O-] | 17 µM
CCN1C(=O)/C(=C/c2ccoc2)C(=O)NC1=S | 40 µM
Cc1sc(NC(=O)c2ccco2)c(C(N)=O)c1C | 3.2 µM
Cc1ccc(-c2n[nH]c(=S)n2/N=C/c2ccc(O)c(O)c2O)cc1 | 1.8 µM
Oc1c(Br)cc(/C=N/Nc2nnc3c(n2)[nH]c2ccccc23)c(Br)c1O | 4 µM
O=C1NC(=S)N(c2ccccc2F)C(=O)/C1=C/c1ccc(I)o1 | 6.7 µM
CCC(=O)Nc1sc2c(c1C(=O)Nc1ccc(OC)cc1)CCCCC2 | inactive
Cc1ccc(-n2c(/C=C/c3ccc(O)c(O)c3)nc3ccccc3c2=O)cc1 | 3.8 µM
O=C1/C(=C\c2ccc(O)c(O)c2)SC(=S)N1c1cccc(Cl)c1 | 4.5 µM
Oc1ccc(/C=N/Nc2nncc(-c3ccccc3)n2)c(O)c1O | 6.8 µM
CCOc1ccc(C2=CC(=O)C=CC2=O)cc1 | 0.9 µM
Cc1sc(NC(=O)Cc2ccccc2)c(C(N)=O)c1C | 8 µM
O=C(NC(=S)Nc1cc(-c2nc3ccccc3s2)ccc1Cl)c1ccc(F)cc1 | 9.1 µM
Cc1ccc(S(=O)(=O)N=C2C=C(Cl)C(=O)C(Br)=C2)cc1 | 3.1 µM
O=C1NC(=S)S/C1=C/c1cccc(OCc2ccc(Cl)c(Cl)c2)c1 | 4 µM
O=C1C=CC(=O)C(c2cc(Cl)ccc2Cl)=C1 | 2.1 µM
O=C1CC(=O)c2ccc3c4c(ccc1c24)C(=O)CC3=O | 3.8 µM
CCOc1ccc(N2C(=O)/C(=C/c3ccc(I)o3)C(=O)NC2=S)cc1 | 4.8 µM
O=C1C(Cl)=C/C(=N\S(=O)(=O)c2ccccc2)C(Cl)=C1Cl | 3.8 µM
